Results taken from patent US6753297B2, “Use of indole-3-succinic acid as auxin” (priority 2001, dated 2004).

Columns and labels:
[1] = test system: Swingtime Fuchsia; assay: Root growth of Swingtime Fuchsia cuttings in hydroponic auxin solution; format: in vivo, Fuchsia hybrida; details: for Enhancement Ratio: Swingtime Fuchsia (SF), R = (ISAx − H2O)/(IBA − H2O), average root growth per cutting; for root growth activity compared to IBA: versus 10^−7 M IBA
Description: (§1) This example illustrates the auxin effect of each indole-3-succinic acid enantiomer and indole-3-succinic acid racemate, and compares them to IBA and water. A detailed description of this root growth study follows.
(§2) Fresh solutions were used in each experiment. Weights of hormone salts were measured to ±0.01 mg on a Mettler H-16 single-pan mechanical balance (reproducibility=±0.03 mg). Using indole-3-succinic acid R and S enantiomers as the 2×NH4^+ salt, 1.40 mg, was dissolved in 95% ethanol (20 mL) and slowly diluted to 500 mL with deionized water to make a stock solution of 1.047×10^−5 molar concentration. Dilutions were then made in the following manner.
(§3) For the concentration study (S)-indole-3-succinic acid; 2NH4^+ (98% e/e, 1.41 mg), and IBA Na(1.13 mg) were used to make stock solution of 1.055×10^−5 and 1.005×10^−5 molar, respectively. Deionized water was also used as a control.
(§4) Five new-growth cuttings of two different varieties of Fuchsia hybrida (i.e., Varigated Fuchsia and Swingtime Fuchsia) were placed into the 50 mL solutions contained in orange plastic pill containers that were blackened with black electrician's tape. The solutions were placed in a fiberglass solar prism greenhouse (90% of UV light is filtered out of sunlight) in which the temperatures varied from 55° F. (night) to 100° F. (day). The solutions were topped with deionized water daily to the 50 mL mark to compensate for water […] and evaporation. Readings of the root growth were measured in total mm for the cuttings in a particular solution on days 7, 10, 14, 18, 22, 26, 30, and 34. These were recorded as the number of rootlets/total length (mm). […] Therefore, all data reflect the average mm root growth per survived cutting.
(§5) This example compares indole-3-succinic acid enantiomers and ISA racemate to IBA and IAA. More specifically, Table 1 illustrates the relative effectiveness (in promoting root growth) of different indole-3-succinic acid solutions compared to 10^−7 M indole-3-butyric acid (IBA) and a 10^−7 M […].
(§6) This example was conducted in the same manner as in Example 2 above.

[2] = test system: Fuchsia hybrida; assay: Effectiveness of indole-3-succinic acid derivatives in root growth, procedure of Example 3; format: in vivo; details: 10^−7 M aqueous solution
Description: as §4
The process recited in Example 1 was followed to make the derivatives and they were each tested in accordance with the procedure in Example 3 in a 10^−7 M aqueous solution. The derivatives and their effectiveness compared to conventional auxins is reported below.

[3] = test system: Varigated Fuchsia; assay: Root growth of Varigated Fuchsia cuttings in hydroponic auxin solution; format: in vivo, Fuchsia hybrida; details: for Enhancement Ratio: Varigated Fuchsia (VF), R = (ISAx − H2O)/(IBA − H2O), average root growth per cutting; for root growth activity compared to IBA: versus 10^−7 M IBA
Description: as §1, §2, §3, §4, §5, §6

SMILES: O=C(O)CC(C(=O)O)c1c[nH]c2ccccc12 (racemic) [Racemic ISA, indole-3-succinic acid]
- Enhancement Ratio ([1]; 10^−7 M): 7.0
- root growth activity compared to IBA ([1]; Swingtime Fuchsia): significantly higher
- melting point: 196 to 198 °C

SMILES: CC(CC(=O)O)c1c[nH]c2ccccc12 (centres unmarked) [3′-indole-3-methylpropanoic acid]
- Effectiveness compared to IBA [2]: same as IBA

SMILES: O=C(O)CC(c1ccccc1)c1c[nH]c2ccccc12 (centres unmarked) [3′-indole-3-phenylpropanoic acid]
- Effectiveness compared to IAA [2]: 2× as effective as IAA

SMILES: O=C(O)CC(C(=O)O)c1c[nH]c2cccc(Cl)c12 (centres unmarked) [4-chloroindole-3-succinic acid]
- Effectiveness compared to IAA [2]: 22× more effective than IAA

SMILES: O=C(O)CC(C(=O)O)c1c[nH]c2ccc(Br)cc12 (centres unmarked) [5-bromoindole-3-succinic acid]
- Effectiveness compared to IAA [2]: same as IAA

SMILES: O=C(O)CC(C(=O)O)c1c[nH]c2ccc(Cl)cc12 (centres unmarked) [5-chloroindole-3-succinic acid]
- Effectiveness compared to IAA [2]: 2× more effective than IAA

SMILES: O=C(O)C[C@@H](C(=O)O)c1c[nH]c2ccccc12 [(R)-ISA, (R)-indole-3-succinic acid]
- Enhancement Ratio ([1]; 10^−7 M): 5.6
- Enhancement Ratio ([1]; 10^−8 M): 7.1
- potency compared to the other ISA enantiomer ([1]; Swingtime Fuchsia, 10^−8 M, FIG. 5): more potent
- Enhancement Ratio ([3]; 10^−7 M): 0.7
- Enhancement Ratio ([3]; 10^−8 M): 4.4
- root growth activity compared to IBA ([3]; Varigated Fuchsia): nearly the same activity

SMILES: O=C(O)C[C@H](C(=O)O)c1c[nH]c2ccccc12 [(S)-ISA, (S)-indole-3-succinic acid]
- Enhancement Ratio ([1]; 10^−7 M): 5.7
- Enhancement Ratio ([1]; 10^−8 M): 4.8
- Enhancement Ratio ([3]; 10^−7 M): 3.8
- Enhancement Ratio ([3]; 10^−8 M): 4.6
- potency compared to the other ISA enantiomer ([3]; Varigated Fuchsia, all concentrations of ISA, FIG. 5): more potent

SMILES: O=C(O)Cc1c[nH]c2ccccc12 [IAA, indole-3-acetic acid, reference compound]
- Enhancement Ratio ([1]; 10^−7 M): 0
- root growth activity compared to IBA ([1]; Swingtime Fuchsia): substantially lower levels of activity
- Enhancement Ratio ([3]; 10^−7 M): 0
- root growth activity compared to IBA ([3]; Varigated Fuchsia): substantially lower levels of activity
